In patent US9844226B2 (AJINOMOTO CO., INC., priority 2009, dated 2017):
Values joined by “and” are separate entries in the source; they are usually repeats but may differ in a detail not shown here. Equal values may be shown once. “Also recorded” adds a separate entry of the source. Starred links: 1 amine or outer side, 2 acyl side, 3 side chain; linkers in the order of their positions; H or OH if unused. Non-standard residues stand in square brackets, D forms with d. No end group written: not given here. γGlu = O=C(O)[C@H](CCC(=O)[*:2])N[*:1]

Tests used:
Format in all cases: in vivo, human
panelists [1] = experiment: Quantitative sensory evaluation test of kokumi-imparting activity; settings: for Strength of Kokumi Impartment, Initial Taste / Strength of Kokumi Impartment, Middle/After Taste: scale -5~0~5, n=4; for Kokumi-imparting strength compared with γ-Glu-Val (in words): in vivo
Procedure: This quantitative sensory evaluation test was carried out as follows: The strength of the kokumi-imparting activity was measured for the cases where the test compound was mixed at concentrations of 0.001 to 0.5 g/dL with distilled water containing sodium glutamate (0.05 g/dL), inosine monophosphate (0.05 g/dL), and sodium chloride (0.5 g/dL). After the test compound was dissolved, samples more acidic than a control with no added test compound were adjusted, before further use, with NaOH to have a pH in a range of ±0.2 from the pH of the control with no added test compound. The sensory evaluation scores were as follows: control: 0 points; strong: 3 points; very strong: 5 points. The sensory evaluation was carried out using n (the number of panelists)=4. Moreover, to clarify the scale, the initial taste and the middle/after taste of γ-[…] at 0.001 g/dL were both set as 3.0 points. The term “middle/after taste” refers to the taste perceived during the period which includes the middle taste and the after taste. For the scoring, a linear scale method was employed. In this method, the score was marked as a position on a straight line showing positions for scores ranging from -5 0 5.

panelists [2] = experiment: Strength of kokumi-imparting activity by Point of Subjective Equality (PSE), limit-determining technique
Procedure: The intensity of the kokumi-imparting activity of γ-Glu-Abu was determined by Point of Subjective Equality (PSE) according to the limit-determining technique (“Statistical Sensory Examination techniques”, written by SATO Shin, published by Japan Federation of Science and Technology). The sensory evaluation was carried out as follows: Distilled water containing sodium glutamate (0.05 g/dL), inosine monophosphate (0.05 g/dL) and sodium chloride (0.5 g/dL) was used as the solution for the sensory evaluation. […] To determine the concentration of γ-Glu-Val at which the strength of taste is the same as that of a solution obtained by causing the solution for the sensory evaluation to contain 0.005 g/dL of γ-[…] solutions were prepared with a concentration that varied on a 50% logarithmic scale by using a solution obtained by causing the solution for the sensory evaluation, to contain 0.01 g/dL of γ-Glu-Val as a standard. The concentrations of γ-Glu-Val was set to 7 values ranging from 0.0030 to 0.0337 g/dL. After the test substance was dissolved, samples more acidic than the control with no added test substance were adjusted, before further use, with NaOH to have a pH in a range of ±0.2 as compared to the pH of the control with no added test substance. The solutions were presented to eighteen panelists in ascending order of the γ-Glu-Val concentration. The evaluation was carried out until each panelist perceived that the strength was higher than that of the 0.005 g/dL γ-Glu-Abu solution. After a certain interval, the solutions were next presented to the eighteen panelists in descending order of the γ-Glu-Val concentration. The evaluation was carried out until each panelist perceived that the strength was lower than that of the 0.005 g/dL γ-Glu-Abu solution. In this sensory evaluation, the panelists were experienced in the development of food products. When the lower and upper threshold values were the same, there was no γ-Glu-Val concentration at which the difference between the perception that the strength was lower, and the perception that the strength was higher, was uncertain. […] Each confidence threshold (average) is an average of the lower thresholds and the upper thresholds. The point of subjective equality (PSE) of γ-Glu-Val to 50 ppm (0.0050 g/dL) of γ-Glu-Abu is expressed as follows: (the sum of the confidence threshold of the lower thresholds and that of the upper threshold value)/2.

panelists [3] = experiment: Quantitative sensory evaluation test of salty taste enhancement
Procedure: After the test compound was dissolved, samples more acidic than a control containing no added test compound were adjusted, before further use, with NaOH to have a pH in a range of ±0.2 from the pH of the control to which no test compound was added.
The sensory evaluation scores were as follows, the control to which no test compound was added, i.e. a 0.5 g/dL sodium chloride solution: 0 points; a 0.75 g/dL sodium chloride solution: 5 points. The sensory evaluation was conducted on a scale ranging from −5 to 0 to 5, with n=5. The “initial taste” refers to the taste perceived by each panelist from the start of eating the sample to 2 seconds thereafter, while the term “middle/after taste” refers to that perceived by each panelist from 2 seconds on and after eating the same, i.e. perceived during the period including both the middle taste and the after taste. For the scoring, a linear scale method was used. In this method, the score was marked as a position on a straight line showing positions for scores ranging from −5˜0˜5. The panelists were persons who were engaged in the development of seasonings for foods for one year or longer in total, and who were capable of determining that the difference in the potency between γ-Glu-Cys-Gly and γ-Glu-Val-Gly each added to a umami taste and salty taste solution was around 10 times, while confirming the ability of these persons at regular intervals.

[4] = 0.2 g/dL in water with MSG 0.05, IMP 0.05, NaCl 0.5 g/dL
[5] = γ-Glu-Val vs 50 ppm γ-Glu-Abu, individual panelists (Nos. 1-18), ascending order of presentation
[6] = γ-Glu-Val vs 50 ppm γ-Glu-Abu, individual panelists (Nos. 19-36), descending order of presentation
[7] = 0.01 g/dL in water with MSG 0.05, IMP 0.05, NaCl 0.5 g/dL
[8] = 0.002 g/dL in 0.5 g/dL NaCl, 0.5 g/dL NaCl = 0, 0.75 g/dL NaCl = 5, n=5

With N[C@@H](CCC(=O)N[C@@H](CO)C(=O)O)C(=O)O [γ-Glu-Ser, γ-L-Glu-L-Ser] the “Strength of Kokumi Impartment, Initial Taste” value (panelists [1]; [4]) was 3.6 points, the “Strength of Kokumi Impartment, Middle/After Taste” value (panelists [1]; [4]) was 3.0 points and the “Kokumi-imparting strength compared with γ-Glu-Val (in words)” value (panelists [1]) was “lower strength than γ-Glu-Val”.

In the case of CC(C)[C@H](NC(=O)CC[C@H](N)C(=O)O)C(=O)O [γ-Glu-Val, γ-L-Glu-L-Val], the “PSE (point of subjective equality) of γ-Glu-Val to 50 ppm γ-Glu-Abu” value (panelists [2]; (lower + upper confidence threshold)/2) is reported as 121.9 ppm, the “γ-Glu-Val concentration (PSE) with the same strength as 0.0050 g/dL γ-Glu-Abu, estimated from number of panelists (Table 4)” value (panelists [2]; estimated from Table 4) is reported as 0.0100 g/dL and the “PSE calculated from upper and lower threshold concentrations of γ-Glu-Val” value (panelists [2]; vs 0.0050 g/dL γ-Glu-Abu) is reported as 0.0122 g/dL. For the same molecule, the “No. of Panelists whose evaluation was such that the difference between γ-Glu-Val and γ-Glu-Abu (0.0050 g/dL) was uncertain” value (panelists [2]; γ-Glu-Val 0.0030 g/dL) was 0 No. of panelists, the “No. of Panelists whose evaluation was such that γ-Glu-Val was weaker than γ-Glu-Abu (0.0050 g/dL)” value (panelists [2]; γ-Glu-Val 0.0030 g/dL) was 36 No. of panelists and the “No. of Panelists whose evaluation was such that γ-Glu-Val was stronger than γ-Glu-Abu (0.0050 g/dL)” value (panelists [2]; γ-Glu-Val 0.0030 g/dL, 18 panelists, ascending and descending) was 0 No. of panelists. The “No. of Panelists whose evaluation was such that the difference between γ-Glu-Val and γ-Glu-Abu (0.0050 g/dL) was uncertain” value (panelists [2]; γ-Glu-Val 0.0044 g/dL) was 0 No. of panelists, the “No. of Panelists whose evaluation was such that γ-Glu-Val was stronger than γ-Glu-Abu (0.0050 g/dL)” value (panelists [2]; γ-Glu-Val 0.0044 g/dL) was 1 No. of panelists and the “No. of Panelists whose evaluation was such that γ-Glu-Val was weaker than γ-Glu-Abu (0.0050 g/dL)” value (panelists [2]; γ-Glu-Val 0.0044 g/dL) was 35 No. of panelists. For the same molecule, the “No. of Panelists whose evaluation was such that the difference between γ-Glu-Val and γ-Glu-Abu (0.0050 g/dL) was uncertain” value (panelists [2]; γ-Glu-Val 0.0067 g/dL) was 13 No. of panelists, the “No. of Panelists whose evaluation was such that γ-Glu-Val was stronger than γ-Glu-Abu (0.0050 g/dL)” value (panelists [2]; γ-Glu-Val 0.0067 g/dL) was 3 No. of panelists and the “No. of Panelists whose evaluation was such that γ-Glu-Val was weaker than γ-Glu-Abu (0.0050 g/dL)” value (panelists [2]; γ-Glu-Val 0.0067 g/dL) was 20 No. of panelists. The “No. of Panelists whose evaluation was such that the difference between γ-Glu-Val and γ-Glu-Abu (0.0050 g/dL) was uncertain” value (panelists [2]; γ-Glu-Val 0.0100 g/dL) was 13 No. of panelists, the “No. of Panelists whose evaluation was such that γ-Glu-Val was stronger than γ-Glu-Abu (0.0050 g/dL)” value (panelists [2]; γ-Glu-Val 0.0100 g/dL) was 11 No. of panelists and the “No. of Panelists whose evaluation was such that γ-Glu-Val was weaker than γ-Glu-Abu (0.0050 g/dL)” value (panelists [2]; γ-Glu-Val 0.0100 g/dL) was 12 No. of panelists. For the same molecule, the “No. of Panelists whose evaluation was such that the difference between γ-Glu-Val and γ-Glu-Abu (0.0050 g/dL) was uncertain” value (panelists [2]; γ-Glu-Val 0.0150 g/dL) was 6 No. of panelists, the “No. of Panelists whose evaluation was such that γ-Glu-Val was stronger than γ-Glu-Abu (0.0050 g/dL)” value (panelists [2]; γ-Glu-Val 0.0150 g/dL) was 25 No. of panelists and the “No. of Panelists whose evaluation was such that γ-Glu-Val was weaker than γ-Glu-Abu (0.0050 g/dL)” value (panelists [2]; γ-Glu-Val 0.0150 g/dL) was 5 No. of panelists. The “No. of Panelists whose evaluation was such that the difference between γ-Glu-Val and γ-Glu-Abu (0.0050 g/dL) was uncertain” value (panelists [2]; γ-Glu-Val 0.0225 g/dL) was 7 No. of panelists, the “No. of Panelists whose evaluation was such that γ-Glu-Val was stronger than γ-Glu-Abu (0.0050 g/dL)” value (panelists [2]; γ-Glu-Val 0.0225 g/dL) was 28 No. of panelists and the “No. of Panelists whose evaluation was such that γ-Glu-Val was weaker than γ-Glu-Abu (0.0050 g/dL)” value (panelists [2]; γ-Glu-Val 0.0225 g/dL) was 1 No. of panelists. For the same molecule, the “No. of Panelists whose evaluation was such that the difference between γ-Glu-Val and γ-Glu-Abu (0.0050 g/dL) was uncertain” value (panelists [2]; γ-Glu-Val 0.0337 g/dL) was 0 No. of panelists, the “No. of Panelists whose evaluation was such that γ-Glu-Val was stronger than γ-Glu-Abu (0.0050 g/dL)” value (panelists [2]; γ-Glu-Val 0.0337 g/dL) was 36 No. of panelists and the “No. of Panelists whose evaluation was such that γ-Glu-Val was weaker than γ-Glu-Abu (0.0050 g/dL)” value (panelists [2]; γ-Glu-Val 0.0337 g/dL) was 0 No. of panelists. For the same molecule, the “Confidence Region (average), Lower Threshold” value (panelists [2]; γ-Glu-Val vs 50 ppm γ-Glu-Abu, average of the 36 lower thresholds) was 94.5 ppm, the “Confidence Region (average), Upper Threshold” value (panelists [2]; γ-Glu-Val vs 50 ppm γ-Glu-Abu, average of the 36 upper thresholds) was 149.3 ppm and the “Lower Threshold at which each panelist determined that the concentrations were the same” value (panelists [2]; [5]) was 55.5 ppm and 125.0 ppm and 37.0 ppm and 83.5 ppm and 187.5 ppm. The “Upper Threshold at which each panelist determined that the concentrations were the same” value (panelists [2]; [5]) was 55.5 ppm and 125.0 ppm and 187.5 ppm and 37.0 ppm and 281.0 ppm and 83.5 ppm, the “Lower Threshold at which each panelist determined that the concentrations were the same” value (panelists [2]; [6]) was 125.0 ppm (3×) and 83.5 ppm (5×) and 187.5 ppm (3×) and 55.5 ppm (5×) and 56.0 ppm and 281.0 ppm and the “Upper Threshold at which each panelist determined that the concentrations were the same” value (panelists [2]; [6]) was 125.0 ppm (7×) and 281.0 ppm (5×) and 187.5 ppm (2×) and 83.5 ppm (4×). For the same molecule, the “Sensory Evaluation Profile (kokumi)” value (panelists [1]; 0.01 g/dL) was “The after taste was extremely weak”, the “Strength of Kokumi Impartment, Initial Taste” value (panelists [1]; [7]) was 3.1 points and the “Strength of Kokumi Impartment, Middle/After Taste” value (panelists [1]; [7]) was 2.4 points.

With [γGlu]-Val-Gly the “Strength of Salty Taste Impartment, Initial Taste” value (panelists [3]; [8]) was 0.8 points, the “Strength of Salty Taste Impartment, Middle/After Taste” value (panelists [3]; [8]) was 1.8 points and the “Salty taste enhancement ability (in words)” value (panelists [3]; comparison of γ-Glu-Val-Gly and γ-Glu-Abu) was “higher taste-imparting strength than γ-Glu-Abu; also recorded: remarkably disturbs the balance of the salty taste”.

For N[C@@H](CCC(=O)N[C@@H](CS)C(=O)O)C(=O)O [γ-Glu-Cys, γ-L-Glu-L-Cys], the “Strength of Kokumi Impartment, Initial Taste” value (panelists [1]; [7]) was 3.1 points, the “Strength of Kokumi Impartment, Middle/After Taste” value (panelists [1]; [7]) was 3.1 points and the “Kokumi-imparting strength compared with γ-Glu-Val (in words)” value (panelists [1]) was “strong effect approximately the same as that of γ-Glu-Val”.

For C[C@H](NC(=O)CC[C@H](N)C(=O)O)C(=O)O [γ-Glu-Ala, γ-L-Glu-L-Ala], the “Strength of Kokumi Impartment, Initial Taste” value (panelists [1]; [4]) was 4.5 points, the “Strength of Kokumi Impartment, Middle/After Taste” value (panelists [1]; [4]) was 4.3 points and the “Kokumi-imparting strength compared with γ-Glu-Val (in words)” value (panelists [1]) was “lower strength than γ-Glu-Val”.
